Measurements taken from ChEMBL document CHEMBL1135979, “Novel sigma receptor ligands. Part 2. SAR of spiro[[2]benzopyran-1,4'-piperidines] and spiro[[2]benzofuran-1,4'-piperidines] with carbon substituents in position 3” (J Med Chem, 2002).

Experiments:
[1] = species on record: Rattus norvegicus; assay: Ratio of binding affinity towards Sigma opioid receptor type 1 versus Sigma opioid receptor type 2
[2] = target: Sigma non-opioid intracellular receptor 1 (Cavia porcellus); assay: Ability to displace [3H](+)-pentazocine from Sigma opioid receptor type 1 of guinea pig brain
[3] = target: Sigma-2 receptor (Rattus norvegicus); assay: Ability to displace [3H]ditolylguanidine in the presence of 100 nM (+)-pentazocine from Sigma opioid receptor type 2 of rat liver

| SMILES | Selectivity [1] | Ki [2] | Ki [3] |
| --- | --- | --- | --- |
| OCC1Cc2ccccc2C2(CCN(Cc3ccccc3)CC2)O1 (stereo not drawn) | 292 | – | – |
| N#CCC1OC2(CCN(Cc3ccccc3)CC2)c2ccccc21 (stereo not drawn) | 768 | – | – |
| O=CCC1Cc2ccccc2C2(CCN(Cc3ccccc3)CC2)O1 (stereo not drawn) | 180 | – | – |
| N#CCC1Cc2ccccc2C2(CCN(Cc3ccccc3)CC2)O1 (stereo not drawn) | 295 | – | – |
| CCOC(=O)CC1Cc2ccccc2C2(CCN(Cc3ccccc3)CC2)O1 (stereo not drawn) | 124 | – | – |
| CNCCC1Cc2ccccc2C2(CCN(Cc3ccccc3)CC2)O1 (stereo not drawn) | 29 | – | – |
| CCOC(=O)CC1OC2(CCN(Cc3ccccc3)CC2)c2ccccc21 (stereo not drawn) | 449 | – | – |
| OCCC1Cc2ccccc2C2(CCN(Cc3ccccc3)CC2)O1 (stereo not drawn) | 668 | – | – |
| CCOC(=O)C1OC2(CCN(Cc3ccccc3)CC2)c2ccccc21 (stereo not drawn) | 796 | – | – |
| CCOC(=O)C1Cc2ccccc2C2(CCN(Cc3ccccc3)CC2)O1 (stereo not drawn) | 1130 | – | – |
| OC1Cc2ccccc2C2(CCN(Cc3ccccc3)CC2)O1 (stereo not drawn) | 236 | 0.00217 µM | 0.513 µM |
